Experimental findings from ChEMBL document CHEMBL1156427, “Hepatitis C virus NS5A is a direct substrate of casein kinase I-alpha, a cellular kinase identified by inhibitor affinity chromatography using specific NS5A hyperphosphorylation inhibitors” (J Biol Chem, 2007) are described below.

Experiment [1] addresses Mitogen-activated protein kinase 9 (Homo sapiens, UniProt P45984). Put plainly: Inhibition of human JNK2.
Experiment [2] in a line: Inhibition of human PKA.
Experiment [3] concerns the target Casein kinase II subunit alpha (Homo sapiens, UniProt P68400). Put plainly: Inhibition of human CK2.
The target in experiment [4] is Casein kinase I isoform alpha (Homo sapiens, UniProt P48729). Put plainly: Inhibition of human CKIalpha.
For experiment [5], the target named is MAP kinase p38 (Homo sapiens, UniProt O15264+Q15759+Q16539+P53778). The experiment can be described thus: Inhibition of human p38 MAPK. It is filed as protein assay.
The target of experiment [6] is Ribosomal protein S6 kinase alpha-3 (Homo sapiens, UniProt P51812). The experiment can be described thus: Inhibition of human RSK2.
In experiment [7] the target is Casein kinase I isoform delta (Homo sapiens, UniProt P48730). The experiment can be described thus: Inhibition of human CKIdelta.
The target in experiment [8] is Mitogen-activated protein kinase 8 (Homo sapiens, UniProt P45983). The experiment can be described thus: Inhibition of human JNK1.
Mitogen-activated protein kinase 8, sequence (P45983 whole entry): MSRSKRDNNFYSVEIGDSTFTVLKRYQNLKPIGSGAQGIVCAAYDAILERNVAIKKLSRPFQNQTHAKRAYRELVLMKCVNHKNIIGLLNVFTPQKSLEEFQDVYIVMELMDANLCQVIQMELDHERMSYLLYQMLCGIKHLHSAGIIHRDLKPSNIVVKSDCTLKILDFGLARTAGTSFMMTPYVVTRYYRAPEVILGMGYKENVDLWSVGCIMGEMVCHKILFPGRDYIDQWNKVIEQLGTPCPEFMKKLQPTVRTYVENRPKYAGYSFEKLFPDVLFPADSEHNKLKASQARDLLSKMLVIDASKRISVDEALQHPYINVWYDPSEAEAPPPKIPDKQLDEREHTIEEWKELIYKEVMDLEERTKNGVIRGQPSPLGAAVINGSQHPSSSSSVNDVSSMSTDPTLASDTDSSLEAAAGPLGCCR

Mitogen-activated protein kinase 9, sequence (P45984 whole entry): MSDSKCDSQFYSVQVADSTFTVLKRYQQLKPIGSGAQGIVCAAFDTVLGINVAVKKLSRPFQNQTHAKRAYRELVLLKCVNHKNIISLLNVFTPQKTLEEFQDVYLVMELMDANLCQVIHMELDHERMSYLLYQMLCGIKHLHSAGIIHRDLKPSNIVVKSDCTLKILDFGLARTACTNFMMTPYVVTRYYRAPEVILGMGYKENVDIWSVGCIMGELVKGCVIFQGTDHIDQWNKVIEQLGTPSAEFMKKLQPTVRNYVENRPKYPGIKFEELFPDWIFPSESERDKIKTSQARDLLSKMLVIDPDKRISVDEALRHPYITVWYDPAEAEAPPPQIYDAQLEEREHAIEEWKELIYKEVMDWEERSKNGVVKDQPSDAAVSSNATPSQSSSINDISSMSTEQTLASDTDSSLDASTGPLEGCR
Casein kinase I isoform alpha, sequence (P48729 whole entry, canonical isoform): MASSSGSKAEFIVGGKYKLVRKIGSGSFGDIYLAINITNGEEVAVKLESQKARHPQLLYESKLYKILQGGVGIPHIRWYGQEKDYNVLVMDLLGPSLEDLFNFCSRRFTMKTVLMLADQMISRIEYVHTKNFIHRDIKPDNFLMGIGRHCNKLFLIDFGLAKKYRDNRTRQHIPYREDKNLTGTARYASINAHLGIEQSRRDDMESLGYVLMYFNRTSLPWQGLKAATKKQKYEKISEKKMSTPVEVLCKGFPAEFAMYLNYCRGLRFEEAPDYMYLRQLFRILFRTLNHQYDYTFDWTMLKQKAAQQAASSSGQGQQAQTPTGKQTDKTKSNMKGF
Ribosomal protein S6 kinase alpha-3, sequence (P51812 whole entry, canonical isoform): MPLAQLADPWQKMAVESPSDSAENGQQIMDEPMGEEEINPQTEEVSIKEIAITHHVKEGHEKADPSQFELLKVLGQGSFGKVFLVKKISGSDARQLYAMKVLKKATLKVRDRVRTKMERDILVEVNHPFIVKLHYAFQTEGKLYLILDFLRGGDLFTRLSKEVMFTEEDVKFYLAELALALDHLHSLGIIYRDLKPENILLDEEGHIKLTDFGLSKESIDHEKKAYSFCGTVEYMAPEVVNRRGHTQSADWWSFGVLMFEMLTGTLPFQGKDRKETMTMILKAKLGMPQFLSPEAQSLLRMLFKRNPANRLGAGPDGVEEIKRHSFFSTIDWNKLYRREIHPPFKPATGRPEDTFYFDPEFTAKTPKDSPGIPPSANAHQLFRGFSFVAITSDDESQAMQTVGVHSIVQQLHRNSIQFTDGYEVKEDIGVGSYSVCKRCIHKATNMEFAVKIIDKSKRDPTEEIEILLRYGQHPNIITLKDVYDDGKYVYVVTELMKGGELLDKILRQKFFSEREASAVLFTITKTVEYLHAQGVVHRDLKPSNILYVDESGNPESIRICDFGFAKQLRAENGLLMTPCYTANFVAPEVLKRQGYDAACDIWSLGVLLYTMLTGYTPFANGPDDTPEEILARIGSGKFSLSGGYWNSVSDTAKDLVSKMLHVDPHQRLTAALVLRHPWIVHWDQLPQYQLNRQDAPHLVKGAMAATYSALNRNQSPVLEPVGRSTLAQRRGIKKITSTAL
Casein kinase II subunit alpha, sequence (P68400 whole entry, canonical isoform): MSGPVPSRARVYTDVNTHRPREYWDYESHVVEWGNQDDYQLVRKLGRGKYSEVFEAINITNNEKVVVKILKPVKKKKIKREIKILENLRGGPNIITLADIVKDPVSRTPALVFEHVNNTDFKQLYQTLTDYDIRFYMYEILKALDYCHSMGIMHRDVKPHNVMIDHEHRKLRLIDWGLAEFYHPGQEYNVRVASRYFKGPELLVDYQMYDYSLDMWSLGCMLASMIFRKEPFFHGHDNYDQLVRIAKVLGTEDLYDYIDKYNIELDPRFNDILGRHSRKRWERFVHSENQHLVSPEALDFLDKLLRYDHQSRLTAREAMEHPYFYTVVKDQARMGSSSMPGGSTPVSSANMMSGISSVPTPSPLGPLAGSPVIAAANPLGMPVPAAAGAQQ
Casein kinase I isoform delta, sequence (P48730 whole entry, canonical isoform): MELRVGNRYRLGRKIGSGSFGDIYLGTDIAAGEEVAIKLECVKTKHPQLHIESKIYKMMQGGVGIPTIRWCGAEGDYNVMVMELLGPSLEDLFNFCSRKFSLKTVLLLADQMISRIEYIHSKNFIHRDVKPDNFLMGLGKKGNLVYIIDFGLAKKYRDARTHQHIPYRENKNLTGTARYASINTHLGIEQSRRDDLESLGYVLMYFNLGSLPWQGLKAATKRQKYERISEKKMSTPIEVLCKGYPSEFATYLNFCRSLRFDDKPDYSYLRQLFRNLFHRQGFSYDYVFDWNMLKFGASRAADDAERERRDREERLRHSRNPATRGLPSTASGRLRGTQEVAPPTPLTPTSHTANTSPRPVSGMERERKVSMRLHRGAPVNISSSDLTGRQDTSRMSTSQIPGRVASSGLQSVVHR

Regarding `CNc1nccc(-c2nc(C3CCNCC3)[nH]c2-c2cccc(C(F)(F)F)c2)n1`, the half-inhibitory concentration (IC50) in experiment [1] was 404 µM; in experiment [2], 260 µM; in experiment [3] it was more than 100 µM; in experiment [4], 1.1 µM; in experiment [5] it was “<= 0.028 uM”; in experiment [6], 76 µM. Besides, the figures for the IC50 in experiment [7] and in experiment [8] were 1.4 µM and 385 µM, respectively.

For `CC1CCC(c2nc(-c3ccc(F)cc3)c(-c3ccncc3)[nH]2)CC1` (stereo unspecified), the IC50 in experiment [1] is 166 µM; in experiment [2] it was 2 µM; in experiment [3], more than 100 µM; in experiment [4] it was 1.3 µM; in experiment [5], “<= 0.024 uM”; in experiment [6], 39 µM. The figures for the IC50 in experiment [7] and in experiment [8] were 0.4 µM and 175 µM, respectively.
